pIC50: −log10 of the molar value.
Target: T1, IspE (4-diphosphocytidyl-2-c-methyl-d-erythritol kinase; Rv1011) (Mycobacterium tuberculosis, UniProt P9WKG7)
T1 sequence (P9WKG7 2-318): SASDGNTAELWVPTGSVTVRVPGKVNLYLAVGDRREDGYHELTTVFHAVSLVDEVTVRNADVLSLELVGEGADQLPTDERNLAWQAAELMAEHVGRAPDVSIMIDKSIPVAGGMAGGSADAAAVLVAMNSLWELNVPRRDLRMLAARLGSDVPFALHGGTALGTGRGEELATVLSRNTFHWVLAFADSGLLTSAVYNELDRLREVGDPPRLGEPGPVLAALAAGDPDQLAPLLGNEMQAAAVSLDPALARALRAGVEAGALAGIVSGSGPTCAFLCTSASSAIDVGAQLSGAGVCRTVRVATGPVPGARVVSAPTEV
Assay: ADP Quest HS coupled fluorescent kinase assay (resorufin) with Rv1011, ATP and CDP-ME
Assay type: biochemical

With Cc1ccc([C@H]2c3c([nH]n(-c4ccccc4)c3=O)NC3=C[C@H](C)CC(=O)[C@H]32)cc1 [A1] the pIC50 was 4.81.
